Test results published in PubChem BioAssay (NCI).
Where “and” joins values, the source holds several entries; their conditions need not be identical. Equal entries are not always repeated.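 1) Cells in 96-well plates. 2) Compound, 48 h, 5 concentrations. 3) Linear interpolation between surrounding doses. 4) Unreached endpoint = highest concentration. GI50 = concentration required for 50% inhibition of growth. TGI marks complete inhibition of growth.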

Columns and labels:
Experiment in all cases: NCI tumour cell line growth inhibition, 48 h
NCI/ADR-RES ovarian = system: NCI/ADR-RES ovarian
HS 578T breast = system: HS 578T breast
MDA-MB-231 breast = system: MDA-MB-231 breast
M19-MEL melanoma = system: M19-MEL melanoma
HOP-18 NSCLC = system: HOP-18 NSCLC
DMS 114 small cell lung = system: DMS 114 small cell lung
SNB-78 CNS = system: SNB-78 CNS
MDA-N = system: MDA-N
SN12K1 renal = system: SN12K1 renal
P388/ADR leukemia = system: P388/ADR leukemia
P388 leukemia = system: P388 leukemia

| Structure (SMILES) | GI50 (NCI/ADR-RES ovarian) | TGI (NCI/ADR-RES ovarian) | GI50 (HS 578T breast) | TGI (HS 578T breast) | GI50 (MDA-MB-231 breast) | TGI (MDA-MB-231 breast) | TGI (M19-MEL melanoma) | TGI (HOP-18 NSCLC) | TGI (DMS 114 small cell lung) | TGI (SNB-78 CNS) | TGI (MDA-N) | TGI (SN12K1 renal) | TGI (P388/ADR leukemia) | TGI (P388 leukemia) |
| --- | --- | --- | --- | --- | --- | --- | --- | --- | --- | --- | --- | --- | --- | --- |
| N#Cc1ccnc(N2C(=O)CC[C@H]2C(=O)N(c2cncc(F)c2)[C@H](C(=O)NC2CC(F)(F)C2)c2ccccc2Cl)c1 | > 100 µM | > 100 µM | 99.6 µM | > 100 µM | 50.7 µM | > 100 µM |  |  |  |  |  |  |  |  |
| Nc1ccc(/C=N/Nc2ccnc3c(N)cccc23)c2cccnc12 | 1.93 µM | 4.41 µM | 2.04 µM | 4.62 µM | 1.6 µM | 3.15 µM |  |  |  |  |  |  |  |  |
| CC(C)(C)c1ccc(C(O)c2ccc(C(C)(C)C)cc2)cc1 |  |  |  |  |  |  | 26.9 µM | 31.2 µM | 25.7 µM |  |  |  |  |  |
| CC(C)=CC(=O)Cc1nc2cc(C)c(C)cc2[nH]c1=O |  |  |  |  |  |  | > 100 µM | > 100 µM |  | > 100 µM |  |  |  |  |
| COc1ccc(/C=C2\CCC(C)(CN(C)C)C2=O)cc1 (stereo not drawn) |  |  |  |  |  |  | > 100 µM | > 100 µM | > 100 µM | > 100 µM |  |  |  |  |
| C[C@H]1[C@H](C)CC[C@]2(C(=O)O)CC[C@]3(C)C(=CC[C@@H]4[C@@]5(C)C/C(=C/c6ccco6)C(=O)C(C)(C)[C@@H]5CC[C@]43C)[C@H]12 | 3.84 µM | 16.1 µM | 11.6 µM | > 100 µM | 6.72 µM | 24.1 µM |  |  |  |  |  |  |  |  |
| CCOC(=O)c1cn(Cc2ccccc2)c(=O)n1Cc1ccccc1 |  |  |  |  |  |  | > 100 µM | > 100 µM | > 100 µM | > 100 µM |  |  |  |  |
| Cn1cc(C2=C(c3cn(CCN)c4ccccc34)C(=O)NC2=O)c2ccccc21 | 10.7 µM | > 25 µM | 4.32 µM | 20.2 µM | 6 µM | 19.2 µM |  |  |  |  |  |  |  |  |
| CCOC(=O)c1sc(=S)c2c(C(=O)OCC)c(C(=O)OCC)sc2c1C(=O)OCC | 17.3 µM | 35.9 µM | 17.7 µM | 47.3 µM | 14.6 µM | 32.7 µM |  |  |  |  |  |  |  |  |
| CCCCCCCC[N+](C)(CCCCCCCC)CCCCCCCC | 1.51 µM | 3.23 µM | 0.471 µM | 2.99 µM | 0.338 µM | 1.26 µM |  |  |  |  |  |  |  |  |
| COC(=O)C1=C(CO)C2C=CC1C2 (stereo not drawn) |  |  |  |  |  |  | > 100 µM | > 100 µM |  | > 100 µM |  |  |  |  |
| CC1OC(OCC2COC(O)(Oc3c(-c4ccc(O)c(O)c4)oc4cc(O)cc(O)c4c3=O)C(O)C2O)C(O)C(O)C1O (stereo not drawn) |  |  |  |  |  |  | > 100 µM | > 100 µM | > 100 µM | > 100 µM |  |  |  |  |
| NCCC(O)(P(=O)(O)O)P(=O)(O)O | > 100 µM | > 100 µM | > 100 µM | > 100 µM | > 100 µM | > 100 µM |  |  |  |  |  |  |  |  |
| CSc1nc2sc3cc(Cl)ccc3n2c(=N)c1C#N | > 42.2 µM | > 100 µM | 2.89 µM | > 24.9 µM | > 85.7 µM | > 100 µM |  |  |  |  |  |  |  |  |
| NCCNC(=S)S |  | > 100 µM |  | 43 µM |  | > 100 µM |  |  |  |  | > 100 µM |  |  |  |
| CC(=O)N=c1ccc2nc3c(cc(N)c4ccccc43)oc-2c1 | 1.62 µM | 4.95 µM |  | > 23.8 µM | 1.25 µM | 3.92 µM |  |  |  |  |  |  |  |  |
| Nc1nc2nc[nH]c2c(=O)[nH]1 |  |  |  |  |  |  | > 100 µM | > 100 µM |  | > 100 µM |  |  |  |  |
| NC1=N/C(=C2/CCNC(=O)c3[nH]c(Br)cc32)C(=O)N1 | 11.9 µM and > 43.3 µM | > 100 µM |  | > 91.2 µM |  | 16.2 µM | > 100 µM | > 100 µM | > 100 µM | > 100 µM | > 43.3 µM | > 100 µM | > 100 µM | 86.1 µM |
| CCCc1nc2c(C)cc(-c3nc4ccccc4n3C)cc2n1Cc1ccc(-c2ccccc2C(=O)O)cc1 | 41.9 µM | > 100 µM | 38.1 µM | > 100 µM | 30.3 µM | > 100 µM |  |  |  |  |  |  |  |  |
| Nc1ncnc2c1ncn2C1OC(CO)=CC1O (stereo not drawn) |  | > 37.5 µM |  | > 37.5 µM |  | > 37.5 µM |  |  |  |  | > 37.5 µM |  |  |  |
| CCn1cnc2c(Nc3cccc(Cl)c3)nc(N[C@@H]3CCCC[C@@H]3N)nc21 | 2.04 µM | 6.71 µM | 2.36 µM | 7.99 µM | 1.83 µM | 5.37 µM |  |  |  |  |  |  |  |  |
| O=C1OC(O)C(Oc2ccc(Cl)cc2)=C1Cl (stereo not drawn) |  |  |  |  |  |  | > 100 µM |  | > 100 µM | > 100 µM |  |  |  |  |
| CCOC(=O)c1sc(Nc2ccc(Cl)cc2)nc1C | 1.78 µM | 4.08 µM | 2.22 µM | 6.2 µM | 1.08 µM | 2.61 µM |  |  |  |  |  |  |  |  |
| Cc1cc(Cl)cc2c1NC(=O)C2(O)C(C)C(=O)c1ccc(Cl)cc1 (stereo not drawn) |  |  |  |  |  |  | 26.2 µM | > 100 µM | > 96.6 µM | > 100 µM |  |  |  |  |
| N#CCCN(c1ccc(-c2nnc(NC(=O)CNNC(=O)CC(=O)Nc3ccccc3)s2)cc1)S(=O)(=O)c1ccccc1 |  |  |  |  |  |  | > 100 µM | > 100 µM | > 100 µM |  |  |  |  |  |
| NC(=S)N/N=C1/C(=O)N(c2ccc(Cl)cc2Cl)C(=O)C(=O)C1c1nc2ccccc2s1 (stereo not drawn) |  |  |  |  |  |  | > 100 µM | > 100 µM | > 100 µM | > 100 µM |  |  |  |  |
| Cc1cc(O)cc2c1O[C@@]1(C)CCC3[C@@]4(C)CC[C@H](O)C(C)(C)C4CC[C@@]3(C)[C@H]1C2 (stereo partly drawn) |  |  |  |  |  |  | 25 µM | 27.8 µM | 19.9 µM | 22.1 µM |  |  |  |  |
